In patent US20240285670A1, “THERAPEUTIC TREATMENT OF TUMORS BY BLOCKING THE HEME SYNTHESIS-EXPORT AXIS” (Università degli Studi di Torino, priority 2021, published 2024):

Tested on: ALAS1
Test: Western blot analysis of ALAS1 expression in SKCO1 cells
Format: cell-based, human
Conditions: 5 mM ALA for 16, 24 and 48 hours vs untreated
Description: (A) Heme content in SHSY5Y cells non-treated (NT) or treated with 5 mM ALA for 15 hours. Values are expressed as pmol heme/mg protein. Data represent mean±SEM, n=3; *=P<0.05. (B, C) qRT-PCR analysis of the expression of ALAS1 (B) and FLVCR1a (C) in SHSY5Y cells non-treated (NT) or treated with 5 mM ALA for 15 hours. Transcript abundance, normalized to beta-actin mRNA expression, is expressed as a fold increase over a calibrator sample. Data represent mean±SEM, n=4. For statistical analyses, an unpaired Student's t-test was used; *p<0.05. (D) qRT-PCR analysis of the expression of ALAS1 in SKCO1 cells untreated (NT) or treated with 5 mM ALA for 24 hours. Transcript abundance, normalized to beta-actin mRNA expression, is expressed as a fold increase over a calibrator sample. Data represent mean±SEM, n=5. […] Band intensities were measured by densitometry and normalized to beta-actin expression. […] (F) Proliferation of SHSY5Y cells assessed by crystal violet staining at different time points (starting from the day after plating, named “day 0”). Treatment with 5 mM ALA occurred at “day 0” and cells were monitored until the end of the experiment without medium refresh. […] (G) SKCO1 cells viability measured by the CellTiter-Fluor Cell Viability Assay (Promega, Madison, WI USA, catalog n°G6080) at different time points, starting from the day after plating (named “day 0”), as a readout of cell proliferation. […]

Compound: Cl.NCC(=O)CCC(=O)O [5-ALA, 5-Aminolevulinic acid hydrochloride]
- ALAS1 protein levels: decreased
